Measurements reported in US12138301B2, “Compounds including a mutant KRAS sequence and a lipid and uses thereof” (Elicio Therapeutics, Inc., priority 2018, dated 2024).
“Also recorded” adds a separate entry of the source.

How the values were obtained:
PBMCs/Splenocytes = assay: ICS for IFNγ on PBMCs and ELISpot for IFNγ on splenocytes of immunized HLA-A2.1 transgenic mice (Example 3); assay type: in vivo, B6 HLA-A2.1 Tg mice; conditions: peptide 20 μg s.c., two boosters at two-week intervals, HLA-A2.1 Tg mice
From the text: B6 mice transgenic for the human HLA gene, A2.1, were immunized either with the soluble or amphiphile-conjugated forms of the KRas G12D antigen, as well as adjuvant (CpG or aCpG). The A2.1 allele is known to mount responses to the KRas peptides in humans.
The experimental design included the following 4 groups of B6 HLA-A2.1 Tg mice immunized with the listed compounds (n=5 for each group): • 1. KRas wild-type+CpG • 2. KRas 12D+CpG • 3. aKRas 12D+aCpG • 4. No immunization
(§1) The adjuvant as well as peptide stock solutions were dissolved in H2O. Final injections were diluted with 1×PBS.
The aKRas peptides used were 18mer sequences of mutant sequences with a G12D substitution (amino acids 4-21 of wild-type 4 […] (SEQ ID NO:9)). 20 μg in 100 μl were used for each injection.
(§2) The aCpG sequence used was the CpG1826 sequence (5′-[…]-3′; SEQ ID NO:10) with two guanines added at the 5′ end (5′-gg […]-3′; SEQ ID NO:11) at a concentration of 5 nmol for each 100 μl injection.
The vaccine was administered subcutaneously to female mice bilaterally at the tail base at 50 μl per side. Two booster doses were given in two-week intervals.
Intracellular cytokine staining (ICS) analysis for IFNγ on peripheral blood mononuclear cells (PBMCs) and ELISpot analysis for IFNγ on splenocytes was performed, using standard protocols, 7 days after the second and third booster dose, respectively.
PBMCs/Splenocytes (10^6 cells/well and 2×10^6 cells/well) were activated with 5 μg/well of either SEQ ID NO:1 or one of SEQ ID NOS:12-20 as shown below:
Specific mutant peptides are given only to the mice that were immunized with the corresponding 18mer.

splenocytes [1] = assay: ELISpot analysis for IFNγ on splenocytes of immunized mice (Example 1, KRas G12D); assay type: in vivo, C57BL/6 mice; conditions: splenocytes activated with G12D 18mer 5 μg/well
Description: The efficacy of soluble-KRas (KRas) or amphiphile-KRas (aKRas) (FIG. 6) mutant sequences and an amphiphile-CpG adjuvant (aCpG) to elicit an immune response was determined.
The experimental design included the following 4 groups of C57BL16 mice immunized with the listed compounds (n=5 for each group): • 1. KRas G12D+aCpG • 2. aKRas G12D+aCpG • 3. KRas G12D+pIC • 4. No immunization
PolyIC (pIC) was used as a benchmark adjuvant control.
The adjuvant, as well as peptide stock, solutions were dissolved in H2O. Final injections were diluted with 1×PBS (phosphate buffered saline).
The aKRas peptides used were 18mer sequences of mutant sequences with a G12D substitution (amino acids 4-21 of wild-type→YKLVVVGAGGVGKSALTI (SEQ ID NO:9)). 20 μg in 100 μl were used for each injection.
The aCpG sequence used was the CpG1826 sequence (5′-[…]-3′; SEQ ID NO:10) with two guanines added at the 5′ end (5′-gg […]-3′; SEQ ID NO:11) at a concentration of 5 nmol for each 100 μl injection. CpG1826 is an optimal mouse sequence while CpG7909 is optimal for humans and poorly active in mice. CpG1826 and CpG7909 are in the same CpG class (class B) and generally have similar activity profiles in their respective species.
50 μg of pIC were used for each 100 μl injection.
Primer immunizations were given subcutaneously (s.c.) into the tail base (day 0) with one booster dose after 2 weeks (day 14). ELISpot analysis for IFNγ on splenocytes was performed, using standard protocols, […] after booster dose administration (day 21). Splenocytes (10^6 cells/well) were activated with 5 μg/well of G12D sequence 18mer (aa4-21)→YKLVVVGADGVGKSALTI (SEQ ID NO:1).

[2] = tested on: KRAS-specific splenic T-cells; assay: Summary of mouse immunogenicity studies: KRAS-specific splenic T-cells by ELISPOT and cytokine bead array (Example 5); assay type: in vivo, C57BL/6 mouse; conditions: subcutaneous administration; identified by ELISPOT and cytokine bead array
splenocytes [3] = assay: ELISpot analysis for IFNγ on splenocytes, higher antigen concentration and bi-weekly or weekly dosing (Example 4); assay type: in vivo, C57BL/6 mice; conditions: peptide 50 μg s.c.; for KRas-specific CD8+ T-cell response (9mers): restimulation with 9mers; for CD8+ or CD4+ T-cell response (18mer): restimulation with 18mer
Description: The concentration of antigen was increased from 20 μg to 50 μg and bi-weekly (bw) or weekly (w) dose intervals were tested.
The experimental design included the following 5 groups of C57BL/6 mice immunized with the listed compounds (n=5 for each group): • 1. KRas 12D+CpG1826 (bw) • 2. KRas 12D+CpG1826 (w) • 3. aKRas 12D+aCpG1826 (bw) • 4. aKRas 12D+aCpG1826 (w) • 5. No immunization
as §1
50 μg in 100 μl were used for each injection.
as §2
Primer immunizations were given subcutaneously (s.c.) into the tail base with one booster dose after 2 weeks.
ELISpot analysis for IFNγ, and CBA (cytometric bead array) analysis for IL6, I-10, IL12, TNFα, IFNγ, and MCP1 was performed on splenocytes, using standard protocols, 7 days after booster dose administration.
Specific mutant peptides were given only to the mice that were immunized with the corresponding 18mer.
Separate plates were prepared for either short (9mer and 10mer) or long (17mer and 18mer) peptide stimulations. Cells from “No immunization” control mice were stimulated with all stimuli.

splenocytes [4] = assay: ELISpot analysis for IFNγ on splenocytes of immunized mice (Example 2, KRas G12R and G12V); assay type: in vivo, C57BL/6 mice; conditions: in combination with aCpG 5 nmol; peptide 20 μg s.c. day 0 + booster d14; splenocytes activated with G12V or G12R 18mer 5 μg/well
Description: as §2

[5] = in combination with aCpG 5 nmol
[6] = in combination with aCpG 5 nmol, peptide 20 μg s.c. tail base day 0 + booster day 14

Substance: DSPE-amido-dPEG24-amido-dPEG24-CYKLVVVGADGVGKSALTI [aKRas G12D]
- KRas-specific CD8+ T-cell response (PBMCs/Splenocytes; [5]): KRas-specific CD8′ T-cell response; also recorded: KRas-specific CD8^+ T-cell response
- activation of splenocytes (ELISpot for IFNγ) (splenocytes [1]; [6]): activated splenocytes
- inducing KRAS-specific splenic T-cells in mice [2]: effective
- KRas-specific CD8+ T-cell response (9mers) (splenocytes [3]; [5]): KRas-specific CD8^+ T-cell response
- CD8+ or CD4+ T-cell response (18mer) (splenocytes [3]; [5]): CD8′ or CD4*T-cell response; also recorded: CD8^+ or CD4^+ T-cell response

Substance: YKLVVVGADGVGKSALTI [soluble KRas G12D]
- KRas-specific CD8+ T-cell response (PBMCs/Splenocytes; in combination with CpG): not
- activation of splenocytes (ELISpot for IFNγ) (splenocytes [1]; [6]): did not
- activation of splenocytes (ELISpot for IFNγ) (splenocytes [1]; in combination with pIC 50 μg, peptide 20 μg s.c. day 0 + booster day 14): did not
- KRas-specific CD8+ T-cell response (9mers) (splenocytes [3]; in combination with CpG): not
- CD8+ or CD4+ T-cell response (18mer) (splenocytes [3]; in combination with CpG): not

Substance: YKLVVVGAGGVGKSALTI [soluble wild-type KRas]
- KRas-specific CD8+ T-cell response (PBMCs/Splenocytes; in combination with CpG): not

Substance: YKLVVVGARGVGKSALTI [soluble KRas G12R]
- activation of splenocytes (ELISpot for IFNγ) (splenocytes [4]): did not

Substance: YKLVVVGAVGVGKSALTI [soluble KRas G12V]
- activation of splenocytes (ELISpot for IFNγ) (splenocytes [4]): did not
